Assay results as given in patent US12415789B2, “Macrocycles comprising a 4-amido-2,4-pentadienoate moiety for the treatment of hypoxic cancers” (Aarhus Universitet, priority 2019, dated 2025).
Read-outs that look alike come from different tables or passages of the source.

Legend:
Type in all cases: cell-based, human
BxPC3 cells = assay: Viability assay (CellTiter Blue), BxPC3 cells, hypoxia vs normoxia; settings: for Index [3] Selectivity index (IC50 [2]/IC50 [1]): BxPC3, normoxic IC50 / hypoxic IC50
Protocol: (§1) PANC-1 and HaCat cells (PANC-1: RRID:CVCL 0480, taken from a person, HaCat: RRID:CVCL 0038) were cultured in DMEM (Gibco, Cat #: 21969-035) supplemented with FBS (10%, Gibco, Cat #: A31698-02), Penicillin/Streptomycin (1%, Sigma-Aldrich, Cat #: P0781), and Ala-Gln (200 μM, Sigma-Aldrich, Cat #: G8541). BxPC3 cells (RRID:CVCL 0186, taken from a person) were cultured in RPMI 1640 (Gibco, Cat #: 61870-010) supplemented with FBS (10%) and Penicillin/Streptomycin (1%). U2OS (RRID:CVCL 0042) and HCT116 cells (RRID:CVCL 0291, ATCC CCL-247) were cultured in McCoy's 5A (Sigma cat. no. M9309) supplemented with FBS (10%) and Penicillin/Streptomycin (1%). Cells were grown under normoxic conditions in T75 flasks (Biolite, Thermo Scientific, Cat #: 130190) in a humidified atmosphere with 5% CO2 at 37° C. For hypoxic conditions cells were placed in a modular incubator chamber (MIC-101, Billups-Rothenberg) equipped with a 10-cm dish with milliQ water and flushed with CO2/N2 (5%/95%, BioNERT, AGA Cat #: 100466065) for 8 minutes at 20-25 L/minute. Cells were passaged approximately every third day by trypsination (Sigma-Aldrich, Cat #: T4049) followed by transfer of ⅕^th of the cells to a new flask. All cell cultures were handled aseptically in a laminar air flow bench and grown in sterile-filtered (Jetbiofil, Cat #: FPE204500) medium according to ATCC's recommendations. All human cell lines were correctly identified by short tandem repeat analysis and tested free of mycoplasma contamination by MycoAlert (Lonza, Cat #: LT07-218).
(§2) Cells were seeded in black 96-well plates (2000 cells/well, 75 μL/well, ThermoFisher Scientific, Cat #: 137103) in complete medium. Subsequently, the cells were allowed to adhere to the substratum overnight. The next day, compounds were serially diluted in DMSO as 200× solutions. The 200× solutions of compounds were initially diluted in complete medium to 4× solutions containing 2% DMSO. Finally, the compounds were given to cells by the addition of 25 μL/well in triplicates resulting in 1× solutions of compounds in 100 μL/well. The cells were then incubated under either normoxia or hypoxia. 90 minutes before the end of the experiment, all cells were given CellTiter Blue (20 μL/well, Promega, Cat #: G8080) and reincubated under normoxia for the remaining time of the experiment. The viability of the cells was assessed by measuring fluorescence in a plate reader (ex/em: 552±10/598±10, Tecan Spark 10M). Data were normalized to the two lowest concentrations of compound and fitted to a 4-parameter nonlinear regression in Prism 7.04 for Windows, GraphPad Software, La Jolla Calif. USA. IC50 values were extrapolated as the X value at Y=50%. Results can be found in Table 1 and the corresponding dose-response curves seen in FIGS. 12 to 17 and in FIGS. 9 to 10.

HCT116 cells = assay: Viability assay (CellTiter Blue), HCT116 cells, hypoxia vs normoxia; settings: for Index [3] Selectivity index (IC50 [2]/IC50 [1]): HCT116, normoxic IC50 / hypoxic IC50
Protocol: as §1, §2

PANC-1 cells = assay: Viability assay (CellTiter Blue), PANC-1 cells, hypoxia vs normoxia; settings: for Index [3] Selectivity index (IC50 [2]/IC50 [1]): PANC1, normoxic IC50 / hypoxic IC50
Protocol: as §1, §2

U2OS cells = assay: Viability assay (CellTiter Blue), U2OS cells, hypoxia vs normoxia; settings: for Index [3] Selectivity index (IC50 [2]/IC50 [1]): normoxic IC50 / hypoxic IC50
Protocol: (§3) Cells were seeded in black 96-well plates (2000 cells/well, 75 μL/well, ThermoFisher Scientific, Cat #: 137103) in complete medium. Subsequently, the cells were allowed to adhere to the substratum overnight. The next day, compounds were serially diluted in DMSO as 200× solutions. The 200× solutions of compounds were initially diluted in complete medium to 4× solutions containing 2% DMSO. Finally, the compounds were given to cells by the addition of 25 μL/well in triplicates resulting in 1× solutions of compounds in 100 μL/well. The cells were then incubated under either normoxia or hypoxia. 90 minutes before the end of the experiment, all cells were given CellTiter Blue (20 μL/well, Promega, Cat #: G8080) and reincubated under normoxia for the remaining time of the experiment. The viability of the cells was assessed by measuring fluorescence in a plate reader (ex/em: 552±10/598±10, Tecan Spark 10M). Data were normalized to the two lowest concentrations of compound and fitted to a 4-parameter nonlinear regression in Prism 7.04 for Windows, GraphPad Software, La Jolla Calif. […] IC50 values were extrapolated as the X value at Y=50%.

HaCat cells = assay: Viability assay (CellTiter Blue), HaCat cells, hypoxia vs normoxia; settings: for Index [3] Selectivity index (IC50 [2]/IC50 [1]): normoxic IC50 / hypoxic IC50
Protocol: as §3

[1] = BxPC3, hypoxic conditions, read-out: IC50 (μM) [1]
[2] = BxPC3, normoxic conditions, read-out: IC50 (μM) [2]
[3] = HCT116, hypoxic conditions, read-out: IC50 (μM) [1]
[4] = HCT116, normoxic conditions, read-out: IC50 (μM) [2]
[5] = PANC1, hypoxic conditions, read-out: IC50 (μM) [1]
[6] = PANC1, normoxic conditions, read-out: IC50 (μM) [2]
[7] = hypoxic conditions, read-out: IC50 (μM) [1]
[8] = normoxic conditions, read-out: IC50 (μM) [2]
[9] = Homo sapiens, BXPC-3, BxPC3, hypoxic conditions, read-out: IC50 (μM) [1]
[10] = Homo sapiens, BXPC-3, BxPC3, normoxic conditions, read-out: IC50 (μM) [2]
[11] = Homo sapiens, HCT-116, HCT116, hypoxic conditions, read-out: IC50 (μM) [1]
[12] = Homo sapiens, HCT-116, HCT116, normoxic conditions, read-out: IC50 (μM) [2]
[13] = Homo sapiens, PANC-1, PANC1, hypoxic conditions, read-out: IC50 (μM) [1]
[14] = Homo sapiens, PANC-1, PANC1, normoxic conditions, read-out: IC50 (μM) [2]
[15] = Homo sapiens, hypoxic conditions, read-out: IC50 (μM) [1]
[16] = Homo sapiens, normoxic conditions, read-out: IC50 (μM) [2]

Compound | IC50 (BxPC3 cells; [1]) [µM] | IC50 (BxPC3 cells; [2]) [µM] | IC50 (HCT116 cells; [3]) [µM] | IC50 (HCT116 cells; [4]) [µM] | IC50 (PANC-1 cells; [5]) [µM] | IC50 (PANC-1 cells; [6]) [µM] | Index [3] Selectivity index (IC50 [2]/IC50 [1]) (BxPC3 cells) | Index [3] Selectivity index (IC50 [2]/IC50 [1]) (HCT116 cells) | Index [3] Selectivity index (IC50 [2]/IC50 [1]) (PANC-1 cells) | further results
CCCCCCCCCCCCc1ccc2c(c1)OC[C@H](CC(=O)OC)NC(=O)CN(C)C(=O)/C=C/[C@H](CO)NC2=O [PH830, Methyl 2-((3S,11R,E)-16-dodecyl-11-(hydroxymethyl)-7-methyl-5,8,13-trioxo-2,3,4,5,6,7,8,11,12,13-decahydrobenzo[n][1]oxa[4,7,12]-triazacyclopentadecin-3-yl)acetate] | > 50 | > 50 | > 50 | > 50 | > 50 | > 50 | – | – | – | –
C=C1/C=C/C(=O)N(C)CC(=O)N[C@@H](CC(=O)OC)COc2cc(CCCCCCCCCCCC)ccc2C(=O)N1 [PH832, Methyl (S,E)-2-(16-dodecyl-7-methyl-11-methylene-5,8,13-trioxo-2,3,4,5,6,7,8,11,12,13-decahydrobenzo[n][1]oxa[4,7,12]-triazacyclopentadecin-3-yl)acetate] | – | – | 5 | 5.6 | 4.3 | 23.3 | – | 1.1 | 5.4 | –
C#CCNC(=O)C[C@H]1COc2cc(CCCCCCCCCCCC)ccc2C(=O)NC(=C)/C=C/C(=O)N(C)CC(=O)N1 [PH845, (S,E)-2-(16-dodecyl-7-methyl-11-methylene-5,8,13-trioxo-2,3,4,5,6,7,8,11,12,13-decahydrobenzo[n][1]oxa[4,7,12]-triazacyclopentadecin-3-yl)-N-(prop-2-yn-1-yl)acetamide] | – | – | 4.2 | > 50 | 3.1 | > 50 | – | >12.4 | >16.4 | –
C=C1/C=C/C(=O)N(C)CC(=O)N2CCC[C@H]2COc2cc(CCCCCCCCCCCC)ccc2C(=O)N1 [PH921, (S,E)-16-dodecyl-7-methyl-11-methylene-2,3,6,7,11,12,19,19a-octahydro-1H,5H-benzo[n]pyrrolo[2,1-c][1]oxa[4,7,12]triazacyclo-pentadecine-5,8,13-trione] | 6 | 12.3 | 2.6 | 8.4 | 2.6 | 13.7 | 2.1 | 3.3 | 5.3 | –
Cn1c(COP(=O)(NCCBr)NCCBr)cnc1[N+](=O)[O-] [TH302, Evofosfamide, reference compound] | – | – | – | – | – | – | 3.4 | 6.9 | 7.2 | IC50 (BxPC3 cells; [9]): 21 µM; IC50 (BxPC3 cells; [10]): 71 µM; IC50 (HCT116 cells; [11]): 6.2 µM; IC50 (HCT116 cells; [12]): 43 µM; IC50 (PANC-1 cells; [13]): 9.4 µM; IC50 (PANC-1 cells; [14]): 69 µM
Nc1n[n+]([O-])c2ccccc2[n+]1[O-] [Tirapazamine, reference compound] | – | – | – | – | – | – | 2.8 | 4.0 | 7.1 | IC50 (BxPC3 cells; [9]): 14 µM; IC50 (BxPC3 cells; [10]): 39 µM; IC50 (HCT116 cells; [11]): 14.4 µM; IC50 (HCT116 cells; [12]): 58 µM; IC50 (U2OS cells; [15]): 98 µM; IC50 (U2OS cells; [16]): 18 µM; Index [3] Selectivity index (IC50 [2]/IC50 [1]) (U2OS cells): 5.5; IC50 (HaCat cells; [15]): 20 µM; IC50 (HaCat cells; [16]): 106 µM; Index [3] Selectivity index (IC50 [2]/IC50 [1]) (HaCat cells): 5.2; IC50 (PANC-1 cells; [13]): 11 µM; IC50 (PANC-1 cells; [14]): 76 µM

Further lines, with some results ahead:

IC50 (BxPC3 cells; [1]) [µM] | IC50 (BxPC3 cells; [2]) [µM] | IC50 (HCT116 cells; [3]) [µM] | IC50 (HCT116 cells; [4]) [µM] | IC50 (PANC-1 cells; [5]) [µM] | IC50 (PANC-1 cells; [6]) [µM] | Compound | Index [3] Selectivity index (IC50 [2]/IC50 [1]) (BxPC3 cells) | Index [3] Selectivity index (IC50 [2]/IC50 [1]) (HCT116 cells) | Index [3] Selectivity index (IC50 [2]/IC50 [1]) (PANC-1 cells) | further results
> 50 | > 50 | > 50 | > 50 | > 50 | > 50 | CCCCCCCCCCCCc1ccc2c(c1)OCCNC(=O)CN(C)C(=O)/C=C/C(CO)NC2=O (stereo not shown) [PH462, (E)-16-dodecyl-11-(hydroxymethyl)-7-methyl-3,4,6,7,11,12-hexahydro-benzo[n][1]oxa[4,7,12]triazacyclopentadecine-5,8,13(2H)-trione] | – | – | – | –
3.4 | 4.9 | 0.98 | 4.2 | 1.8 | 4.1 | C=C1C=CC(=O)N(C)CC(=O)NCCOc2cc(CCCCCCCCCCCC)ccc2C(=O)N1 [PH466, (E)-16-dodecyl-7-methyl-11-methylene-3,4,6,7,11,12-hexahydro-benzo[n][1]oxa[4,7,12]triazacyclopentadecine-5,8,13(2H)-trione] | 1.4 | 4.3 | 2.3 | IC50 (U2OS cells; [7]): 2.1 µM; Index [3] Selectivity index (IC50 [2]/IC50 [1]) (U2OS cells): 1.8; IC50 (U2OS cells; [8]): 3.8 µM; IC50 (HaCat cells; [7]): 3.9 µM; Index [3] Selectivity index (IC50 [2]/IC50 [1]) (HaCat cells): 1.3; IC50 (HaCat cells; [8]): 4.9 µM
– | – | 3.3 | 16.2 | 7.8 | 16.3 | C=C1/C=C/C(=O)N(C)CC(=O)N[C@@H](CC(=O)N2CCOCC2)COc2cc(CCCCCCCCCCCC)ccc2C(=O)N1 [PH741, (S,E)-16-dodecyl-7-methyl-11-methylene-3-(2-morpholino-2-oxoethyl)-3,4,6,7,11,12-hexahydrobenzo[n][1]oxa[4,7,12]triazacyclopentadecine-5,8,13(2H)-trione] | – | 4.9 | 2.1 | –
5.5 | 6.3 | 3.7 | 3.5 | 5.4 | 5.8 | C=C1/C=C/C(=O)N(C)CC(=O)N2CC(F)(F)C[C@H]2COc2cc(CCCCCCCCCCCC)ccc2C(=O)N1 [PH905, (S,E)-16-dodecyl-2,2-difluoro-7-methyl-11-methylene-2,3,6,7,11,12,19,19a-octahydro-1H,5H-benzo[n]pyrrolo[2,1-c][1]oxa-[4,7,12]triazacyclopentadecine-5,8,13-trione] | 1.1 | 1.0 | 1.1 | –
– | – | 1.4 | > 28 | 2.3 | > 28 | C=C1/C=C/C(=O)N(C)CC(=O)N[C@@H](CC(=O)NC2CC2)COc2cc(CCCCCCCCCCCC)ccc2C(=O)N1 [PH906, (S,E)-N-cyclopropyl-2-(16-dodecyl-7-methyl-11-methylene-5,8,13-trioxo-2,3,4,5,6,7,8,11,12,13-decahydrobenzo[n][1]oxa[4,7,12]-triazacyclopentadecin-3-yl)acetamide] | – | >20.7 | >12.1 | –
> 50 | > 50 | 14.7 | 17.4 | > 50 | > 50 | CCCCCCCCCCCCc1ccc2c(c1)OC[C@H](CCCCNC(=O)OC(C)(C)C)NC(=O)CN(C)C(=O)/C=C/[C@H](CO)NC2=O [PH908, tert-butyl (4-((3S,11R,E)-16-dodecyl-11-(hydroxymethyl)-7-methyl-5,8,13-trioxo-2,3,4,5,6,7,8,11,12,13-decahydrobenzo[n][1]oxa-[4,7,12]triazacyclopentadecin-3-yl)butyl)carbamate] | – | 1.2 | – | –
